Patent publication US5480902A, “Thienylpyrrole fungicidal agents” (American Cyanamid Company, priority 1993, dated 1996)
Read-outs that look alike come from different tables or passages of the source.

Assays:
Pythium ultimum = test: In vitro fungicidal activity, growth inhibition of ground fungal mycelia (PYTHUL); format: cell-based; details: Globisporangium ultimum, 3-4 days at 21° C., averaged when more than one test, read-out: Growth inhibition rating, PYTHUL (converted)
Protocol: (§1) Test compounds are dissolved or suspended in acetone and dispersed into cell well plates containing a suspension of ground fungal mycelia in a nutrient broth. Assay plates are incubated for 3-4 days at 21° C. Growth inhibition is measured visually and is rated using the following scale:
(§2) Assay fungi include the plant pathogens, Pythium ultimum (Pythul); Rhizoctonia solani (Rhizso); Fusarium oxysporum f. sp. cucumerinum (Fusoxc); and Pseudocercosporella herpotrichoides (Psdche).
(§3) When more than one test is run, the data are averaged.

Venturia inaegualis = test: In vivo fungicidal activity on host plants, Apple Scab (AS); details: sprayed on host plants before inoculation
Plasmopara viticola = test: In vivo fungicidal activity on host plants, Grape Downy Mildew (GDM); details: sprayed on host plants before inoculation
Pyricularia oryzae = format: in vivo; details: sprayed on host plants before inoculation
Cercospora beticola = test: In vivo fungicidal activity on host plants, Sugar Beet Cercospora (SBC); details: sprayed on host plants before inoculation; further: ranges in brackets are in %
[1] = test system: Puccinia recondita f. sp. tritici; test: In vivo fungicidal activity on host plants, Wheat Leaf Rust (WLR); details: 400 ppm; sprayed on host plants before inoculation
[2] = test system: Erysiphe graminis f. sp. tritici; test: In vivo fungicidal activity on host plants, Wheat Powdery Mildew (WPM); details: sprayed on host plants before inoculation
[3] = test system: Fusarium oxysporum f. sp. cucumerinum; test: In vitro fungicidal activity, growth inhibition of ground fungal mycelia (FUSOXC); format: cell-based; details: read-out: Growth inhibition rating, FUSOXC
Protocol: as §1, §2, §3

[4] = test system: Pseudocercosporella herpotrichoides; test: In vitro fungicidal activity, growth inhibition of ground fungal mycelia (PSDCHE); format: cell-based; details: Oculimacula yallundae, 3-4 days at 21° C., averaged when more than one test, read-out: Growth inhibition rating, PSDCHE (converted)
Protocol: as §1, §2, §3

Rhizoctonia solani = test: In vitro fungicidal activity, growth inhibition of ground fungal mycelia (RHIZSO); format: cell-based; details: 3-4 days at 21° C., averaged when more than one test, read-out: Growth inhibition rating, RHIZSO
Protocol: as §1, §2, §3

Botrytis cinerea = test: In vivo fungicidal activity on host plants, Pepper Botrytis (PB); details: sprayed on host plants before inoculation
[5] = 25 ppm, 3-4 days at 21° C., averaged when more than one test

| Compound | inhibition at 25 ppm (Pythium ultimum) | Disease control rating, AS (Venturia inaegualis; 400 ppm) | Disease control rating, GDM (Plasmopara viticola; 400 ppm) | Disease control rating, RB (Pyricularia oryzae; 400 ppm) | Disease control rating, SBC (Cercospora beticola; 400 ppm) | Disease control rating, WLR [1] | Disease control rating, WPM ([2]; 400 ppm) | inhibition at 25 ppm [3, 5] | inhibition at 25 ppm [4] | inhibition at 25 ppm (Rhizoctonia solani) | Disease control rating, PB (Botrytis cinerea; 400 ppm) | Disease control rating, AS (Venturia inaegualis; 200 ppm) | Disease control rating, GDM (Plasmopara viticola; 200 ppm) | Disease control rating, PB (Botrytis cinerea; 200 ppm) | Disease control rating, RB (Pyricularia oryzae; 200 ppm) | Disease control rating, SBC (Cercospora beticola; 200 ppm) | Disease control rating, WPM ([2]; 200 ppm) | inhibition at 25 ppm [3] |
| --- | --- | --- | --- | --- | --- | --- | --- | --- | --- | --- | --- | --- | --- | --- | --- | --- | --- | --- |
| N#Cc1cc(C(F)(F)F)[nH]c1-c1cccs1 [Compound 2, 2-(2-Thienyl)-5-(trifluoromethyl)pyrrole-3-carbonitrile] | 100% | 9 (100) | 9 (100) | 5 (60-74) | 0 (0) | 9 (100) | 9 (100) |  |  |  |  |  |  |  |  |  |  |  |
| N#Cc1cc(C(F)(F)F)[nH]c1-c1ccc(Cl)s1 [Compound 16, 2-(5-Chloro-2-thienyl)-5-(trifluoromethyl)pyrrole-3-carbonitrile] | 0% |  |  |  |  |  |  | 0% | 0% | 60 to 89% |  |  |  |  |  |  |  |  |
| N#Cc1c(-c2oc3ccccc3c2Cl)[nH]c(Cl)c1Cl [Compound 1, 4,5-Dichloro-2-(3-chloro-2-benzofuranyl)pyrrole-3-carbonitrile] | 1 to 29% | 0 (0) |  | 4 (45-59) | 0 (0) | 2 (15-29) | 0 (0) |  | 1 to 29% | 1 to 29% | 2 (15-29) |  |  |  |  |  |  |  |
| O=[N+]([O-])c1c(-c2ccc(Cl)cc2)[nH]c(C(F)(F)F)c1-c1csc(Br)c1Br [Compound 10, 2-(p-Chlorophenyl)-4-(4,5-dibromo-3-thienyl)-3-nitro-5-(trifluoromethyl)pyrrole] | 0% | 0 (0) | 7 (90-95) | 7 (90-95) | 0 (0) |  | 4 (45-59) |  | 0% |  | 0 (0) |  |  |  |  |  |  |  |
| N#Cc1cc(C(F)(F)F)[nH]c1-c1ccc(Br)o1 [Compound 14, 2-(5-Bromo-2-furyl)-5-(trifluoromethyl)pyrrole-3-carbonitrile] |  |  |  |  |  |  |  | 0% | 0% | 30 to 59% |  | 0 (0) | 6 (75-89) | 0 (0) | 0 (0) | 0 (0) | 6 (75-89) |  |
| FC(F)(F)c1[nH]c(-c2ccc(Cl)cc2)cc1-c1ccco1 [Compound 4, 5-(p-Chlorophenyl)-3-(2-furyl)-2-(trifluoromethyl)pyrrole] | 60 to 89% | 2 (15-29) | 8 (96-99) | 1 (1-14) | 0 (0) | 6 (75-89) | 0 (0) |  | 100% |  | 0 (0) |  |  |  |  |  |  |  |
| N#Cc1c(-c2ccc(Cl)s2)[nH]c(C(F)(F)F)c1Br [Compound 17, 4-Bromo-2-(5-chloro-2-thienyl)-5-(trifluoromethyl)pyrrole-3-carbonitrile] | 30 to 59% |  |  |  |  |  |  | 0% | 0% | 60 to 89% |  |  |  |  |  |  |  |  |
| N#Cc1c(-c2ccc(Br)s2)[nH]c(C(F)(F)F)c1Br [Compound 3, 4-Bromo-2-(5-bromo-2-thienyl)-5-(trifluoromethyl)pyrrole-3-carbonitrile] |  | 9 (100) | 9 (100) | 0 (0) |  | 9 (100) | 7 (90-95) |  | 30 to 59% |  |  |  |  |  |  |  |  |  |
| N#Cc1c(-c2cccs2)[nH]c(C(F)(F)F)c1Cl [Compound 12, 4-Chloro-2-(2-thienyl)-5-(trifluoromethyl)pyrrole-3-carbonitrile] | 90 to 99% |  |  |  |  |  |  | 0% | 0% | 90 to 99% |  | 4 (45-59) | 8 (96-99) | 0 (0) | 0 (0) | 0 (0) | 8 (96-99) |  |
| N#Cc1c(-c2ccc(Br)o2)[nH]c(C(F)(F)F)c1Br [Compound 19, 4-Bromo-2-(5-bromo-2-furyl)-5-(trifluoromethyl)pyrrole-3-carbonitrile] | 0% |  |  |  |  |  |  | 0% | 0% | 0% |  |  |  |  |  |  |  |  |
| CCOCn1c(-c2ccc(Br)o2)c(C#N)c(Br)c1C(F)(F)F [Compound 22, 4-Bromo-2-(5-bromo-2-furyl)-1-(ethoxymethyl)-5-(trifluoromethyl)pyrrole-3-carbonitrile] | 0% |  |  |  |  |  |  | 0% | 0% | 0% |  |  |  |  |  |  |  |  |
| O=[N+]([O-])c1ccc(-c2c(C(F)(F)F)[nH]c(-c3ccc(Cl)cc3)c2[N+](=O)[O-])s1 [Compound 5, 2-(p-Chlorophenyl)-3-nitro-4-(5-nitro-2-thienyl)-5-(trifluoromethyl)pyrrole] |  | 4 (45-59) | 9 (100) | 0 (0) |  | 6 (75-89) | 0 (0) |  | 60 to 89% | 90 to 99% | 0 (0) |  |  |  |  |  |  | 30 to 59% |
| N#Cc1cc(-c2ccc(Cl)s2)[nH]c1Cl [Compound 6, 2-Chloro-5-(5-chloro-2-thienyl)pyrrole-3-carbonitrile] |  | 9 (100) | 7 (90-95) | 0 (0) | 6 (75-89) | 6 (75-89) | 0 (0) |  | 60 to 89% | 60 to 89% | 0 (0) |  |  |  |  |  |  |  |
| O=[N+]([O-])c1c(-c2ccc(Cl)cc2)[nH]c(C(F)(F)F)c1-c1csc(Br)c1 [Compound 8, 3-(5-Bromo-3-thienyl)-5-(p-chlorophenyl)-4-nitro-2-(trifluoromethyl)pyrrole] | 0% | 8 (96-99) | 9 (100) | 4 (45-59) |  | 7 (90-95) | 0 (0) | 0% | 0% | 30 to 59% | 0 (0) |  |  |  |  |  |  |  |
| CCOCn1c(-c2ccc(Br)s2)c(C#N)c(Br)c1C(F)(F)F [Compound 13, 4-Bromo-2-(5-bromo-2-thienyl)-1-(ethoxymethyl)-5-(trifluoromethyl)pyrrole-3-carbonitrile] | 0% |  |  |  |  |  |  | 0% | 0% | 30 to 59% |  | 0 (0) | 0 (0) | 0 (0) | 0 (0) | 0 (0) | 9 (100) |  |
| N#Cc1cc(C(F)(F)F)[nH]c1-c1ccc(Br)s1 [Compound 15, 2-(5-Bromo-2-thienyl)-5-(trifluoromethyl)pyrrole-3-carbonitrile] | 0% |  |  |  |  |  |  | 0% | 0% | 60 to 89% |  |  |  |  |  |  |  |  |
| N#Cc1cc(C(F)(F)F)[nH]c1-c1ccco1 [Compound 11, 2-(2-Furyl)-5-(trifluoromethyl)pyrrole-3-carbonitrile] | 90 to 99% |  |  |  |  |  |  | 0% | 0% |  |  | 0 (0) | 0 (0) | 0 (0) | 0 (0) | 0 (0) |  |  |
| N#Cc1cc(C(F)(F)F)[nH]c1-c1cc(Br)cs1 [Compound 20, 2-(4-Bromo-2-thienyl)-5-(trifluoromethyl)pyrrole-3-carbonitrile] | 0% |  |  |  |  |  |  | 0% | 0% | 0% |  |  |  |  |  |  |  |  |
| CCOCn1c(-c2ccc(Cl)s2)c(C#N)c(Br)c1C(F)(F)F [Compound 18, 4-Bromo-2-(5-chloro-2-thienyl)-1-(ethoxymethyl)-5-(trifluoromethyl)pyrrole-3-carbonitrile] | 0% |  |  |  |  |  |  | 0% | 0% | 30 to 59% |  |  |  |  |  |  |  |  |
| N#Cc1c(-c2cc(Br)c(Br)s2)[nH]c(C(F)(F)F)c1Br [Compound 21, 4-Bromo-2-(4,5-dibromo-2-thienyl)-5-(trifluoromethyl)pyrrole-3-carbonitrile] | 0% |  |  |  |  |  |  | 0% | 0% | 0% |  |  |  |  |  |  |  |  |
